# Results: patent publication US20040223932A1, “Adhesive treatment for acne” (Closure Medical Corporation, priority 2003, published 2004)
# Assay: Observation of the monomer composition after preparation (clarity, solubility, premature polymerization)
# Assay type: physicochemical
# Conditions: 2 wt % in 2-octyl cyanoacrylate monomer
# From the text: The characteristics of the composition are observed at about one minute after preparation and later at least twenty-four hours after preparation.
structure (smiles),measurement,setting,value
O=C(O)c1ccccc1O [salicylic acid],solubility in the monomer,inferred from clear solution,soluble
same,premature polymerization of the monomer,up to at least twenty-four hours,does not cause premature polymerization
